PubChem BioAssay (NCI)
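Exposure lasted 48 hours, with cells grown in 96-well plates and compounds tested at five concentrations. GI50 is the concentration that inhibits growth by half. The concentration for full growth arrest is given as TGI.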

What was measured:
Assay in all cases: NCI anticancer screen, dose series, 48 h
SNB-19 CNS = system: SNB-19 CNS
COLO 205 colon = system: COLO 205 colon
K-562 leukemia = system: K-562 leukemia
786-0 renal = system: 786-0 renal
SR leukemia = system: SR leukemia
TK-10 renal = system: TK-10 renal
IGROV1 ovarian = system: IGROV1 ovarian
HOP-92 NSCLC = system: HOP-92 NSCLC
OVCAR-5 ovarian = system: OVCAR-5 ovarian
MALME-3M melanoma = system: MALME-3M melanoma
HT29 colon = system: HT29 colon
PC-3 prostate = system: PC-3 prostate
SF-268 CNS = system: SF-268 CNS
MOLT-4 leukemia = system: MOLT-4 leukemia
NCI/ADR-RES ovarian = system: NCI/ADR-RES ovarian
SK-MEL-2 melanoma = system: SK-MEL-2 melanoma
ACHN renal = system: ACHN renal
EKVX NSCLC = system: EKVX NSCLC
HCT-116 colon = system: HCT-116 colon
NCI-H460 lung = system: NCI-H460 lung
M14 melanoma = system: M14 melanoma
SNB-75 CNS = system: SNB-75 CNS
NCI-H226 lung = system: NCI-H226 lung
HCT-15 colon = system: HCT-15 colon
A498 renal = system: A498 renal
HS 578T breast = system: HS 578T breast
OVCAR-3 ovarian = system: OVCAR-3 ovarian
SF-295 CNS = system: SF-295 CNS
LOX IMVI melanoma = system: LOX IMVI melanoma

**Q.** With `S=c1ssnc1-c1ccccn1` as the compound, how does the GI50 (SNB-19 CNS) read?
**A.** 11.2 µM

**Q.** What about the TGI (SNB-19 CNS) of the same compound?
**A.** > 94.8 µM

**Q.** What about the GI50 (COLO 205 colon) of the same compound?
**A.** 3.96 µM

**Q.** And the TGI (COLO 205 colon)?
**A.** 17.8 µM

**Q.** And the GI50 (K-562 leukemia)?
**A.** 1.4 µM

**Q.** What about the TGI (K-562 leukemia) of the same compound?
**A.** 16.2 µM

**Q.** What about the GI50 (786-0 renal) of the same compound?
**A.** 2.54 µM

**Q.** And the TGI (786-0 renal)?
**A.** > 25.4 µM

**Q.** What about the GI50 (SR leukemia) of the same compound?
**A.** 0.521 µM

**Q.** And the TGI (SR leukemia)?
**A.** > 21.5 µM

**Q.** What about the GI50 (TK-10 renal) of the same compound?
**A.** 5.04 µM

**Q.** And the TGI (TK-10 renal)?
**A.** 32.4 µM

**Q.** And the GI50 (IGROV1 ovarian)?
**A.** 1.81 µM

**Q.** What about the TGI (IGROV1 ovarian) of the same compound?
**A.** 11 µM

**Q.** And the GI50 (HOP-92 NSCLC)?
**A.** 1.67 µM

**Q.** And the TGI (HOP-92 NSCLC)?
**A.** 6.73 µM

**Q.** And the GI50 (OVCAR-5 ovarian)?
**A.** 5.38 µM

**Q.** And the TGI (OVCAR-5 ovarian)?
**A.** 25.1 µM

**Q.** What about the GI50 (MALME-3M melanoma) of the same compound?
**A.** 7.77 µM

**Q.** What about the TGI (MALME-3M melanoma) of the same compound?
**A.** 36.1 µM

**Q.** And the GI50 (HT29 colon)?
**A.** 5.28 µM

**Q.** What about the TGI (HT29 colon) of the same compound?
**A.** > 40.7 µM

**Q.** And the GI50 (PC-3 prostate)?
**A.** 3 µM

**Q.** And the TGI (PC-3 prostate)?
**A.** > 34.6 µM

**Q.** And the GI50 (SF-268 CNS)?
**A.** 2.71 µM

**Q.** And the TGI (SF-268 CNS)?
**A.** 20.1 µM

**Q.** What about the GI50 (MOLT-4 leukemia) of the same compound?
**A.** 1.27 µM

**Q.** What about the TGI (MOLT-4 leukemia) of the same compound?
**A.** 4.58 µM

**Q.** What about the GI50 (NCI/ADR-RES ovarian) of the same compound?
**A.** 3.84 µM

**Q.** What about the TGI (NCI/ADR-RES ovarian) of the same compound?
**A.** 39.7 µM

**Q.** What about the GI50 (SK-MEL-2 melanoma) of the same compound?
**A.** 1.88 µM

**Q.** What about the TGI (SK-MEL-2 melanoma) of the same compound?
**A.** 5.73 µM

**Q.** And the GI50 (ACHN renal)?
**A.** 2.25 µM

**Q.** And the TGI (ACHN renal)?
**A.** 14.7 µM

**Q.** And the GI50 (EKVX NSCLC)?
**A.** 5.64 µM

**Q.** And the TGI (EKVX NSCLC)?
**A.** 22 µM

**Q.** And the GI50 (HCT-116 colon)?
**A.** 1.24 µM

**Q.** What about the TGI (HCT-116 colon) of the same compound?
**A.** > 20.1 µM

**Q.** And the GI50 (NCI-H460 lung)?
**A.** 1.82 µM

**Q.** And the TGI (NCI-H460 lung)?
**A.** 11.6 µM

**Q.** What about the GI50 (M14 melanoma) of the same compound?
**A.** 2.58 µM

**Q.** And the TGI (M14 melanoma)?
**A.** 19.6 µM

**Q.** What about the GI50 (SNB-75 CNS) of the same compound?
**A.** 3.13 µM

**Q.** What about the TGI (SNB-75 CNS) of the same compound?
**A.** > 38.6 µM

**Q.** And the GI50 (NCI-H226 lung)?
**A.** 7.08 µM

**Q.** What about the TGI (NCI-H226 lung) of the same compound?
**A.** 25.1 µM

**Q.** And the GI50 (HCT-15 colon)?
**A.** 2.2 µM

**Q.** And the TGI (HCT-15 colon)?
**A.** 15.7 µM

**Q.** And the GI50 (A498 renal)?
**A.** 6.8 µM

**Q.** And the TGI (A498 renal)?
**A.** 31.8 µM

**Q.** What about the GI50 (HS 578T breast) of the same compound?
**A.** 2.15 µM

**Q.** And the TGI (HS 578T breast)?
**A.** 7.86 µM

**Q.** And the GI50 (OVCAR-3 ovarian)?
**A.** 3.21 µM

**Q.** What about the TGI (OVCAR-3 ovarian) of the same compound?
**A.** 17.8 µM

**Q.** What about the GI50 (SF-295 CNS) of the same compound?
**A.** 5.17 µM

**Q.** And the TGI (SF-295 CNS)?
**A.** 24.9 µM

**Q.** And the GI50 (LOX IMVI melanoma)?
**A.** 2.54 µM

**Q.** What about the TGI (LOX IMVI melanoma) of the same compound?
**A.** 12.1 µM
